Details of series [1]: method as in PMID 28498658. The settings on record: cited from earlier work.
Series [2] concerns CYP3A. In words: 4β-hydroxycholesterol/cholesterol ratio as endogenous marker of CYP3A. The format is in vivo, human. The conditions noted are these: MAD, doses up to 750 mg BID. An excerpt: The primary objective of study 2 was to determine the safety and tolerability of MAD of orally administered IR and MR formulations of PF-06650833 after a standard meal in healthy adult subjects. The secondary objective was to evaluate the plasma and urine PK profiles of PF-06650833 after repeat dosing. Exploratory objectives were to assess the effects of PF-06650833 on exploratory biomarkers of PD activity, including high-sensitivity C-reactive protein (hsCRP), and to evaluate cholesterol/hydroxycholesterol ratios as an endogenous marker for cytochrome P450 3A (CYP3A) induction or inhibition.
For both studies, samples of blood (and urine in study 2) were taken for evaluation of PK/PD parameters (see Additional file 1: Supplemental Methods). […] Plasma and urine samples were analyzed using validated, sensitive, and specific liquid chromatography tandem mass spectrometric methods (at Pfizer Inc., Groton, CT, USA, for study 1 and at Worldwide Pharmacokinetics, Dynamics and Metabolism, Cambridge, MA, USA, for study 2). The lower limit of quantification for PF-06650833 in plasma was 0.0500 ng/mL. The lower limit of quantification for PF-06650833 in urine was 1.00 ng/mL. Serum samples were also analyzed for hsCRP, and plasma samples were analyzed for 4β-hydroxycholesterol and cholesterol. […]
35 Plasma samples were analyzed using a validated, sensitive , and specific liquid […]

As to `CC[C@@H]1[C@H](F)C(=O)N[C@@H]1COc1nccc2cc(C(N)=O)c(OC)cc12` [PF-06650833, 1-{[(2S,3S,4S)-3-Ethyl-4-fluoro-5-oxopyrrolidin-2-yl]methoxy}-7-methoxyisoquinoline-6-carboxamide], the Permeability entry in series [1] is “high-permeability compound”. Besides, the “CYP3A induction or inhibition based on cholesterol/hydroxycholesterol ratio” value in series [2] is listed as “no apparent trend for CYP3A induction or inhibition”.

(Values after publication PMC6896740, “Safety, tolerability, pharmacokinetics, and pharmacodynamics of PF-06650833, a selective interleukin-1 receptor-associated kinase 4 (IRAK4) inhibitor, in single and multiple ascending dose randomized phase 1 studies in healthy subjects” (Arthritis Research & Therapy, 2019).)
